Molecules are shown by their SMILES. Entries after “also recorded” stand apart in the source; their conditions may differ.

The test system of experiment [1] is EP4 mRNA. The experiment in a line: EP4 mRNA levels in RP-1 periosteal cells (Northern blot). Particulars: 10^-6 M. The class given is cell-based, rat. How it is done: (§1) RP-1 periosteal cells are spontaneously immortalized from primary cultures of periosteal cells from tibae of 4-week old Sprague-Dawley rats and are cultured in DMEM (BRL, Gaithersburg, Md.) with 10% fetal bovine serum (JRH Biosciences, Lenexa, Kans.). […] Total RNA is extracted from the tibial metaphysis or diaphysis and calvaria using a guanidinium isothiocyanate-phenol-chloroform method after pulverizing frozen bone samples by a tissue homogenizer. See P. Chomczynski et al., Single-step method of RNA isolation by acid guanidium thiocyanate-phenol-chloroform extraction., Analyt Biochem, 162, 156-159 (1987), which is incorporated by reference herein in its entirety. RNA samples ([…]) are separated on 0.9% agarose/formaldehyde gels and transferred onto nylon membranes (Boehringer Mannheim, Germany). Membranes are prehybridized in Hybrisol I (Oncor, Gaithersburg, Md.) and 0.5 mg/ml sonicated salmon sperm DNA (Boehringer) at 42° C. for 3 hours and are hybridized at 42° C. with rat EP2 and mouse EP4 cDNA probes labeled with [^32P]-dCTP (Amersham, Buckinghamshire, UK) by random priming using the rediprime kit (Amersham). After hybridization, membranes are washed 4 times in 2×SSC+0.1% SDS at room temperature for a total of 1 hour and once with 0.2×SSC+0.1% SDS at 55° C. for 1 hour and then exposed to Kodak XAR 2 film at −70° C. using intensifying screens. […]

In experiment [2] the test system is EP2 mRNA. As to the kind of experiment: EP2 mRNA in vivo in bone tissue after systemic administration. Particulars: RP-1 cells and rat bone tissue. How it is done: For mRNA localization experiments, 5-week old Sprague-Dawley rats (Charles River) are euthanized by CO2, their tibiae and calvariae are excised, cleaned of soft tissues and frozen immediately in liquid nitrogen. For EP4 regulation experiments, 6-week old rats are given a single injection of either vehicle (7% ethanol in sterile water) or an anabolic dose of PGE2 (Cayman Chemical, Ann Arbor, Mich.), 3-6 mg/kg in the same vehicle) intraperitoneally. Animals are euthenized at several time points post-injection and their tibiae and calvariae, as well as samples from lung and kidney tissues are frozen in liquid nitrogen. Total RNA is extracted from the tibial metaphysis or diaphysis and calvaria using a guanidinium isothiocyanate-phenol-chloroform method after pulverizing frozen bone samples by a tissue homogenizer. See P. Chomczynski et al., Single-step method of RNA isolation by acid guanidium thiocyanate-phenol-chloroform extraction., Analyt Biochem, 162, 156-159 (1987), which is incorporated by reference herein in its entirety. RNA samples ([…]) are separated on 0.9% agarose/formaldehyde gels and transferred onto nylon membranes (Boehringer Mannheim, Germany). […]

The test system of experiment [3] is EP4 mRNA. As to the kind of experiment: In situ hybridization of EP4 expression in tibial bone marrow cells. It counts as in vivo, rat. The settings on record: rats, single anabolic dose. As for the experimental part:
For mRNA localization experiments, 5-week old Sprague-Dawley rats (Charles River) are euthanized by CO2, their tibiae and calvariae are excised, cleaned of soft tissues and frozen immediately in liquid nitrogen. For EP4 regulation experiments, 6-week old rats are given a single injection of either vehicle (7% ethanol in sterile water) or an anabolic dose of PGE2 (Cayman Chemical, Ann Arbor, Mich.), 3-6 mg/kg in the same vehicle) intraperitoneally. Animals are euthenized at several time points post-injection and their tibiae and calvariae, as well as samples from lung and kidney tissues are frozen in liquid nitrogen.
Frozen tibiae are sectioned coronally at […] thickness and sections are mounted on charged slides (Probe On Plus, Fisher Scientific, Springfield, N.J.) and are kept at −70° C. until hybridization. cRNA probes are labeled with ^35S-UTPgS (ICN, Costa Mesa, Calif.) using a Riboprobe II kit (Promega Madison, Wis.). Hybridization is performed overnight at 50° C. […]
In situ hybridization is used in order to localize cells expressing EP4 in bone. In control experiment (vehicle-injected) rats, low expression of EP4 was detected in bone marrow cells. […]

Another experiment deals with RCT-3 cells. As to the kind of experiment: Intracellular cAMP in RCT-3 cells. It counts as cell-based, rat. How it is done:
(§2) RCT-1 and RCT-3 are clonal cell lines immortalized by SV-40 large T antigen from cells released from fetal rat calvair by a cmbination collagenase/hyaluronidase digestion. RCT-1 cells, derived from cells released during the first 10 minutes of digestion (fraction I), are cultured in RPMI 1640 medium (BRL) with 10% fetal bovine serum and 0.4 mg/ml G418 (BRL). […] RCT-3 cells, immortalized from osteoblast-enriched fraction III cells, are cultured in F-12 medium (BRL) with 5% Fetal bovine serum and 0.4 mg/ml G418. TRAB-11 cells are also immortalized by SV40 large T antigen from adult rat tibia and are cultured in RPMI 1640 medium with 10% FBS and 0.4 mg/ml G418. ROS 17/2.8 rat osteosarcoma cells are cultured in F-12 containing 5% FBS. Osteoblast-enriched (fraction III) primary fetal rat calvaria cells are obtained by collagenase/hyaluronidase digestion of calvariae of 19 day-old rat fetuses. See Rodan et al., Growth stimulation of rat calvaria osteoblastic cells by acidic FGF, Endocrinology, 121, 1919-1923 (1987), which is incorporated by reference herein in its entirety. Cells are released during 30-50 minutes digestion (fraction III) and are cultured in F-12 medium containing 5% FBS. […]

In experiment [4] the test system is EP4 mRNA. As to the kind of experiment: EP4 mRNA levels in RCT-3 cells (Northern blot). It counts as cell-based, rat. How it is done:
RCT-1 and RCT-3 are clonal cell lines immortalized by SV-40 large T antigen from cells released from fetal rat calvair by a cmbination collagenase/hyaluronidase digestion. RCT-1 cells, derived from cells released during the first 10 minutes of digestion (fraction I), are cultured in RPMI 1640 medium (BRL) with 10% fetal bovine serum and 0.4 mg/ml G418 (BRL). […] RCT-3 cells, immortalized from osteoblast-enriched fraction III cells, are cultured in F-12 medium (BRL) with 5% Fetal bovine serum and 0.4 mg/ml G418. TRAB-11 cells are also immortalized by SV40 large T antigen from adult rat tibia and are cultured in RPMI 1640 medium with 10% FBS and 0.4 mg/ml G418. ROS 17/2.8 rat osteosarcoma cells are cultured in F-12 containing 5% FBS. Osteoblast-enriched (fraction III) primary fetal rat calvaria cells are obtained by collagenase/hyaluronidase digestion of calvariae of 19 day-old rat fetuses. See Rodan et al., Growth stimulation of rat calvaria osteoblastic cells by acidic FGF, Endocrinology, 121, 1919-1923 (1987), which is incorporated by reference herein in its entirety. Cells are released during 30-50 minutes digestion (fraction III) and are cultured in F-12 medium containing 5% FBS. Total RNA is extracted from the tibial metaphysis or diaphysis and calvaria using a guanidinium isothiocyanate-phenol-chloroform method after pulverizing frozen bone samples by a tissue homogenizer. […]

The test system of the next experiment is ROS 17/2.8 cells. As to the kind of experiment: Intracellular cAMP in ROS 17/2.8 cells. It counts as cell-based, rat. As for the experimental part: as §2
Experiment [5] relates to EP4 mRNA. As to the kind of experiment: EP4 mRNA levels in vivo in bone tissue after systemic administration (Northern blot). The arrangement: species or system rat. As for the experimental part: For mRNA localization experiments, 5-week old Sprague-Dawley rats (Charles River) are euthanized by CO2, their tibiae and calvariae are excised, cleaned of soft tissues and frozen immediately in liquid nitrogen. For EP4 regulation experiments, 6-week old rats are given a single injection of either vehicle (7% ethanol in sterile water) or an anabolic dose of PGE2 (Cayman Chemical, Ann Arbor, Mich.), 3-6 mg/kg in the same vehicle) intraperitoneally. Animals are euthenized at several time points post-injection and their tibiae and calvariae, as well as samples from lung and kidney tissues are frozen in liquid nitrogen. Total RNA is extracted from the tibial metaphysis or diaphysis and calvaria using a guanidinium isothiocyanate-phenol-chloroform method after pulverizing frozen bone samples by a tissue homogenizer. See P. Chomczynski et al., Single-step method of RNA isolation by acid guanidium thiocyanate-phenol-chloroform extraction., Analyt Biochem, 162, 156-159 (1987), which is incorporated by reference herein in its entirety. RNA samples ([…]) are separated on 0.9% agarose/formaldehyde gels and transferred onto nylon membranes (Boehringer Mannheim, Germany). Membranes are prehybridized in Hybrisol I (Oncor, Gaithersburg, Md.) and 0.5 mg/ml sonicated salmon sperm DNA (Boehringer) at 42° C. for 3 hours and are hybridized at 42° C. with rat EP2 and mouse EP4 cDNA probes labeled with [^32P]-dCTP (Amersham, Buckinghamshire, UK) by random priming using the rediprime kit (Amersham). After hybridization, membranes are washed 4 times in 2×SSC+0.1% SDS at room temperature for a total of 1 hour and once with 0.2×SSC+0.1% SDS at 55° C. for 1 hour and then exposed to Kodak XAR 2 film at −70° C. using intensifying screens. After developing the films, bound probes are removed twice with 0.1% SDS at 80° C. and membranes are hybridized with a human GAPDH (Glyceraldehyde 3-Phosphate Dehydrogenase) cDNA probe (purchased from Clontech, Palo Alto, Calif.) for loading control. To examine if PGE2 regulates EP4 mRNA levels in vivo in bone tissue, […] male rats are injected with PGE2 (3-6 mg/Kg).

In a further experiment the test system is TRAB-11 cells. The experiment in a line: Intracellular cAMP in TRAB-11 cells. The class given is cell-based, rat. How it is done:
as §2

Experiment [6] deals with EP2 mRNA. As to the kind of experiment: EP2 mRNA expression in RP-1 cells (Northern blot). The class given is cell-based, rat. How it is done:
as §1

The mark [7] stands for this setting: rats, 3-6 mg/Kg, systemic injection.
Setting [8] is: young adult rats, 3-6 mg/kg, systemic.

`CCCCCC(O)/C=C/[C@H]1C(O)CC(=O)C1C/C=C\CCCC(=O)O` (stereo partly shown) [PGE2]: in the experiment on EP4 mRNA [1], the “effect on EP4 mRNA levels” value was “rapidly increases EP4 mRNA levels; also recorded: increases the level of EP4 mRNA” and the “time of peak of EP4 mRNA levels after treatment” value was found to be 2 h. Moreover, the “induction of EP2 mRNA in RP-1 cells and bone tissue” value with EP2 mRNA [2] is reported as “does not include EP2 mRNA”. For the same compound, the “effect on expression of EP4 in bone marrow cells” value in the experiment on EP4 mRNA [3] is given as “increasesd the expression of EP4”. Besides, the “effect on intracellular cAMP” value with RCT-3 cells is reported as “markedly induced”. Besides, the “effect on EP4 mRNA levels” value in the experiment with EP4 mRNA [4] is “no effect on EP4 mRNA levels”. Moreover, the “effect on intracellular cAMP” value in the experiment with ROS 17/2.8 cells is “no effect on intracellular cAMP”. Besides, in the experiment on EP4 mRNA [5] (setting [7]), the “effect on EP4 mRNA levels in tibial diaphysis” value is “rapidly increased EP4 mRNA levels” and the “time of peak of EP4 mRNA levels in tibial diaphysis after injection” value worked out at 2 h. Also, in the experiment on EP4 mRNA [5] (setting [8]), the “effect on expression of EP4 in tibiae and calvariae” value is recorded as “upregulates the expression of EP4”; the “time of peak of EP4 upregulation in tibiae and calvariae” value lay in the range of 1 to 2 h. The “effect on intracellular cAMP” value with TRAB-11 cells is “markedly induced”. The “EP2 mRNA expression before or after treatment” value in the experiment on EP2 mRNA [6] is given as “not expressed”.

For the origin of these results see patent US6586457B2, “Methods for inhibiting bone resorption” (Merck & Co., Inc., priority 1998, dated 2003).
